Where a name gives a salt, the structure may show the parent alone.

Experiment [1] concerns acetic acid-induced writhing in Swiss-Webster mice. The experiment in a line: Anti-writhing test in mice (AW). The experiment is classed as in vivo. The following applies: 10 mg/kg. The source says: Anti-Writhing Test in Mice (AW) Test Protocol
The purpose of this test is to evaluate drugs for analgesic-like activity. The AW test determines the effect of drugs on the response to a presumed painful stimulus in mice and is used as a preliminary in vivo procedure for the identification of potential analgesic agents.
Known analgesics with low, moderate, or high efficacy in man allow mice to tolerate intra-peritoneal administration of dilute acetic acid as evidenced by lesser incidence of writhing movements. The AW test measures the nociceptive response to acetic acid in mice and provides an objective, reliable, and quantitative estimate of efficacy and potency of potential analgesic compounds. This test serves as a preclinical predictor of analgesic activity.
Subjects are male Swiss-Webster mice (25-35 g).
Compounds are dissolved or suspended in physiological saline containing 2% Emulphor. Suspensions are subjected to ultrasonication for 3 minutes. Drug doses are expressed as the active moiety and are normally administered to mice (10, 30, and 100 mg/kg IP, SC, PO, or IM) in a volume of 10 mL/kg, 1 hour prior to testing; ICV doses (in μg/kg) are administered in a volume of 0.5 mL/kg, 5 minutes prior to testing. Animals dosed PO are fasted for 16 hours prior to dosing. Groups of eight mice are tested with each dose or the vehicle solution (control group).
Mice are treated with a dilute solution of acetic acid (0.6%, 10 mL/kg IP) which elicits writhing. In four successive trials, one pair of mice from each treatment group is placed in one of four adjacent clear plexiglas chambers (4 in×4 in×4 in). This allows the simultaneous observation of four pairs of mice representing all treatments and controls throughout the test. Writhing movements (abdominal contractions, stretching of the torso and hind legs, and concave arching of the back) are counted for 5 minutes commencing 7 minutes after acetic acid administration.
Drug effects on acetic acid-induced writhing are expressed as percent suppression of writhing relative to the vehicle-treated control group run in parallel with treated animals. The writhing tallies from pairs of animals are summed for each treatment and are divided by the summed writhing in the control group. The ED50s for suppression of writhing are determined by nonlinear regression analysis.
(In general: An intraperitoneal irritant provokes the stretching counted in writhing tests.)

For experiment [2], the target named is T1, N-type calcium channels in IMR32 human neuroblastoma cells (Homo sapiens, UniProt Q00975).
T1 construct: expressing neuronal N-type calcium channels upon differentiation, was used for this assay; host or cells: IMR32 human neuroblastoma cells differentiated with dibutyryl cAMP and 5-bromo-2-deoxyuridine
Put plainly: FLPIMR assay (FLIPR, IMR32 cells). The experiment is classed as cell-based. Conditions: nitrendipine present, read-out: FLP IMR IC50. The procedure: In Vitro Protocol: FLPIMR Assays
Calcium flux through voltage-sensitive calcium channels was assessed by time-resolved monitoring of the fluorescence of pre-loaded intracellular calcium-sensitive dyes using FLIPR, a fluorescent image plate reader (Molecular Devices Co.). The IMR32 human neuroblastoma cell line (ATCC, CRL-127), expressing neuronal N-type calcium channels upon differentiation, was used for this assay. IMR32 cells were grown in MEM media (Gibco BRL, 11095-080), supplemented with 10% fetal bovine serum (Gibco BRL, 26140-087), 1% antibiotic-antimycotic (Gibco BRL, 15240-096), 1% L-glutamine (Gibco BRL, 25030-032). Cells, grown to confluency, were differentiated for a period of 7-10 days, or longer, by adding 1 mM dibutyryl cAMP (Sigma D-0627) and 2.5 μM 5-bromo-2-deoxyuridine (Sigma B-9285) to the media. The differentiation media was fed continuously to cells until the cells were used in an experiment.
Differentiated cells were removed from T150 flasks by aspirating media and adding 10 mL harvesting solution consisting of 0.5 mM EDTA in DPBS without calcium or magnesium (Gibco BRL, 14190-144). Cells were then centrifuged at 1500 rpm (≈500 g) for 3 minutes in a Beckman tabletop centrifuge in order to remove the harvesting solution. Cells were resuspended in 10 mL of media containing 1 μM Oregon Green 488 Bapta-1 dye (Molecular Probes, O-6807) and placed in a 37° C. shaking waterbath for 1 hour. The dye-containing media was then diluted with 40 mL buffer (composition in mM: 1.25 CaCl2, 1.2 MgSO4, 11 glucose, 10 HEPES, 3.0 KCl, 137.0 NaCl, pH 7.4 with Tris base) and cells were centrifuged at 1500 rpm (≈500 g) for 3 minutes. Cells were resuspended and washed a second time with 40-50 mL incubation buffer. After centrifugation, cells were resuspended and 200 μL aliquots were plated on black-sided 96-well plates (Costar, 3603) for use in FLIPR. The plates of cells were centrifuged at 750 rpm (≈100 g) for 1.5 minutes to settle the cells to the bottom of the wells. Cells were given one final wash at setting BF1F in a Denley Cellwash (Labsystems, CW018B). The residual buffer volume was adjusted to 50 μL. A 5-minute drug-preincubation period at 35° C. was initiated when 50 μL of drug-containing buffer was pipetted into the cell plate with the 96-well pipettor integrated in the FLIPR apparatus. Nitrendipine, at a concentration of 4 μM, was included in this buffer, in addition to compounds of the present invention at various concentrations. […] Fluorescent counts were monitored at 20 s intervals for 360 s, beginning 60 s prior to the delivery of drug-containing buffer. Following drug addition, 100 μL aliquots of a high K^+, depolarizing stimulus (composition in mM: 1.25 CaCl2, 1.2 MgSO4, 11 glucose, 10 HEPES, 140.0 KCl, pH 7.4 with Tris base) were added to each well, and fluorescence was monitored at 1 s intervals for 120 s, beginning 10 s prior to the stimulus addition. CCD camera exposure time was 0.4 s; laser excitation was at 488 nm with a power of 0.2-0.5W; and a 510 to 560 nm bandpass interference filter preceded the camera.
Data was analyzed as a summation of fluorescent counts above basal during the stimulation period (an approximation of area under the curve), after normalizing the data with a spatial uniformity correction (for variations in laser illumination and cell density) and a negative control correction (zero calcium increase defined as the fluorescence reading in the presence of saturating pharmacologic block of the N-type calcium channel). […] This component was not included in any calculations.
Drug effects were expressed as percent inhibition of fluorescence from an average of 8 K^+-stimulated wells which were pre-treated in the drug incubation period with buffer only. Data was analyzed using FLIPR software and Microsoft Excel spreadsheet software.

T1 sequence (Q00975 whole entry): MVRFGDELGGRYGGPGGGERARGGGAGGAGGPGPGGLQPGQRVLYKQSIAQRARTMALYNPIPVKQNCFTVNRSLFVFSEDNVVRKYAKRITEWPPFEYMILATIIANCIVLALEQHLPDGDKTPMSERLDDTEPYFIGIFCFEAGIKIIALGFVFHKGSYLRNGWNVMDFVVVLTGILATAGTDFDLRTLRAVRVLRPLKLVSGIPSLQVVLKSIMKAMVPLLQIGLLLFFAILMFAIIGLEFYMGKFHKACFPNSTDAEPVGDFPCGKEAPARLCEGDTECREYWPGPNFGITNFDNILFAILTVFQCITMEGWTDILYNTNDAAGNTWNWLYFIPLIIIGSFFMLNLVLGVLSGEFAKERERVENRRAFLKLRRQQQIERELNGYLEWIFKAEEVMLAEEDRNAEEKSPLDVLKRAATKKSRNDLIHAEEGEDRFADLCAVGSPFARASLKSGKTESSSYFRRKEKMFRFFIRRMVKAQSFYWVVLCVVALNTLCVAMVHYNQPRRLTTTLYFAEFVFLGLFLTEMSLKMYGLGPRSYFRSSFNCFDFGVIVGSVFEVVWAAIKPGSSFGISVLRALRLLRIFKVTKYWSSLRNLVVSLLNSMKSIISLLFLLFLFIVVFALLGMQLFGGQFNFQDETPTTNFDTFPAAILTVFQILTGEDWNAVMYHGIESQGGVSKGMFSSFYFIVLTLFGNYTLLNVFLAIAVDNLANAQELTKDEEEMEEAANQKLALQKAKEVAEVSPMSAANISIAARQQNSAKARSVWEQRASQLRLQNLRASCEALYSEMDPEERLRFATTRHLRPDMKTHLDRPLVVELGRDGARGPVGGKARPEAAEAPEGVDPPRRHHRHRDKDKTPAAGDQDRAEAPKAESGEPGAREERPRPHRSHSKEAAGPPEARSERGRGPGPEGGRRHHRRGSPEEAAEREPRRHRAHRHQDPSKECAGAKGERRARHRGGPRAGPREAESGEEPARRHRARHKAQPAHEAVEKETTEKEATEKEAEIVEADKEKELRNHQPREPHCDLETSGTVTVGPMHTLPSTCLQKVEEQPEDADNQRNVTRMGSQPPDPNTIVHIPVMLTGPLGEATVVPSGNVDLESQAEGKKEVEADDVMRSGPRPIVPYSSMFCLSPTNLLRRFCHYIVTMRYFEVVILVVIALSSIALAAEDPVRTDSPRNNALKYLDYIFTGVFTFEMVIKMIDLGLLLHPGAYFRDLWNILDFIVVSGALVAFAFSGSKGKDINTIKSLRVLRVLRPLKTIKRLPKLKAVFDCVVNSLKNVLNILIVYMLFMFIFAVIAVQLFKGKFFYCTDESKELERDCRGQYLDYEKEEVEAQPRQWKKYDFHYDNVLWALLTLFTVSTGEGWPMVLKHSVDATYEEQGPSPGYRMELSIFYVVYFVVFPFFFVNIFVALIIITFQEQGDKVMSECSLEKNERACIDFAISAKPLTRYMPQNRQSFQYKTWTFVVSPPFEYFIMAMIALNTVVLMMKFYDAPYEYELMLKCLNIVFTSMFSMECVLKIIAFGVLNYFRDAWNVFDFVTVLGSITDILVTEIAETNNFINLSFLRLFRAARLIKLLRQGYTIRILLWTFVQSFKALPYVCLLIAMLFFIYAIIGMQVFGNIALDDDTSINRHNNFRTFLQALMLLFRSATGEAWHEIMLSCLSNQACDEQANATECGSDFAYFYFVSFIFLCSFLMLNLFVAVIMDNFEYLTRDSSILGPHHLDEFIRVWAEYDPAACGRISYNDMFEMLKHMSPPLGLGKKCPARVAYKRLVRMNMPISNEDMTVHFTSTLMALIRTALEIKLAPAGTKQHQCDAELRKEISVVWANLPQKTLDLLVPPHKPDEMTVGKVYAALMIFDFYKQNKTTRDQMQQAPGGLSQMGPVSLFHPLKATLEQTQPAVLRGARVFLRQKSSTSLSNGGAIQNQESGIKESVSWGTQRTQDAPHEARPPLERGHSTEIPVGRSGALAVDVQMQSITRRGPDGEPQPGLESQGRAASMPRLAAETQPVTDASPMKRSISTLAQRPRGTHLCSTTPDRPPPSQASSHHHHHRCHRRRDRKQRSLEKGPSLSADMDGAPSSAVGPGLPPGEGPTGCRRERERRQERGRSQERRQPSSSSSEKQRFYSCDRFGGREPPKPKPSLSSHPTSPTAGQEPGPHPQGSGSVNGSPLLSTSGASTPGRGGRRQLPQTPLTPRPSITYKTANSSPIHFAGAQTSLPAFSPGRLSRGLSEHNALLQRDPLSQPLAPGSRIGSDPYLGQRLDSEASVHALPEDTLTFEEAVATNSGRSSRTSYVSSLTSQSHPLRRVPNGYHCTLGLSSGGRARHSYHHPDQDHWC
T1 sequence (P54289 25-956 partner limits assumed): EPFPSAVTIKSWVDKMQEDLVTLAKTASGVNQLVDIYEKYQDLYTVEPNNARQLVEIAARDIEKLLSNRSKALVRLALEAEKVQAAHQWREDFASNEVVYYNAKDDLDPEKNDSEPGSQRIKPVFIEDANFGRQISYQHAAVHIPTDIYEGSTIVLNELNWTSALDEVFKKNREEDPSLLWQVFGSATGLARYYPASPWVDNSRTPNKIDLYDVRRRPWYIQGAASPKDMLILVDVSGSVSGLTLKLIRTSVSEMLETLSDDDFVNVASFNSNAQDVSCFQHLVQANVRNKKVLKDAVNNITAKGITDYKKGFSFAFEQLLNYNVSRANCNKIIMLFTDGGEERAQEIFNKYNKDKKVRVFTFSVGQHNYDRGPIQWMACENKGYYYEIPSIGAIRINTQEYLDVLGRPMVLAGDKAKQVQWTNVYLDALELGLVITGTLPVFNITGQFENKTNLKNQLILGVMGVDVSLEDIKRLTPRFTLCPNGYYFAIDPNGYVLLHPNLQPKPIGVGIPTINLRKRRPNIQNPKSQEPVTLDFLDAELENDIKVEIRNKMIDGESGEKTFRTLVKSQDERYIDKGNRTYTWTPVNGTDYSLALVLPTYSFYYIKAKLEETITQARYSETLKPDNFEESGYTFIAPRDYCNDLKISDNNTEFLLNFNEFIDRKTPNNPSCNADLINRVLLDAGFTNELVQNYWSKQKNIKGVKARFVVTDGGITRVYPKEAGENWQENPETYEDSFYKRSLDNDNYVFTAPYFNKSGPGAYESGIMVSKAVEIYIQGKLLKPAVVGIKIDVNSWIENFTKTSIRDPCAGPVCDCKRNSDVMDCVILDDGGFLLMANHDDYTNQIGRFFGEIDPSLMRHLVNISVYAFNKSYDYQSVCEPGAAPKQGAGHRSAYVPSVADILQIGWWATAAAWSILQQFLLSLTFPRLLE
T1 sequence (P54289 957-1103 partner limits assumed): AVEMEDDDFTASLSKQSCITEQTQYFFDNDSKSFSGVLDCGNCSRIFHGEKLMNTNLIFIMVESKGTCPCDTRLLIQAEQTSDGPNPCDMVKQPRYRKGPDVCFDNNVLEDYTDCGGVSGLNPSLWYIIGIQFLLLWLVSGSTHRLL
T1 sequence (Q02641 whole entry partner): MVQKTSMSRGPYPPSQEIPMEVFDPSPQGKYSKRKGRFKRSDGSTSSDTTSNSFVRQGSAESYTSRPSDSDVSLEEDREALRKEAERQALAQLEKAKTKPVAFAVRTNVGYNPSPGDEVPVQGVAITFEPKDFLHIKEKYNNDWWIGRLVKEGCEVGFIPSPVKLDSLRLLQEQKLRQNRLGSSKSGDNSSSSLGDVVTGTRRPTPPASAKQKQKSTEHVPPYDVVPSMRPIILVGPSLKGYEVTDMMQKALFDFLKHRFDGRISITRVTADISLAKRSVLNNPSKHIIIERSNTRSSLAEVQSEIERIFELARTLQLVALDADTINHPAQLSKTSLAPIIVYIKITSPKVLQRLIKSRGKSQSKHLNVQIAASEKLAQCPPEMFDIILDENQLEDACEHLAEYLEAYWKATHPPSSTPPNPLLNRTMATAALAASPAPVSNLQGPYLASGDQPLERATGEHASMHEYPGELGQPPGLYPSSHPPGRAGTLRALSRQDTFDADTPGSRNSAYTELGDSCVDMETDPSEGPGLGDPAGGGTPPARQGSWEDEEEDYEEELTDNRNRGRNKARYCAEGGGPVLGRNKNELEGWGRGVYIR

Broadly, the IC50 is the point on the concentration scale where inhibition reaches its midpoint. On to `CN[C@H](CC(C)C)C(=O)NCCCC(c1ccc(F)cc1)c1ccc(F)cc1` [Example 71, (R)-4-Methyl-2-methylamino-pentanoic acid [4,4-bis-(4-fluorophenyl)-butyl]-amide monohydrochloride], for which the “Anti-Writhing % Protection (dose)” value in experiment [1] is 33.9% @ 10 mg/kg. In experiment [2], the IC50 stood at 2.5 µM.

Consider `CC(C)C[C@H](O)C(=O)NCCCC(c1ccc(F)cc1)c1ccc(F)cc1` [Example 72, (S)-2-Hydroxy-4-methyl-pentanoic acid [4,4-bis-(4-fluoro-phenyl)-butyl]-amide], for which the IC50 in experiment [2] worked out at 1.9 µM. With `CN[C@H](C(=O)NCCCC(c1ccc(F)cc1)c1ccc(F)cc1)C(C)C` [Example 73, (S)-3-Methyl-2-methylamino-butanoic acid [4,4-bis-(4-fluorophenyl)-butyl]-amide monohydrochloride], the “Anti-Writhing % Protection (dose)” value in experiment [1] stood at 90.4% @ 10 mg/kg. Besides, the IC50 in experiment [2] stood at 3.9 µM. For the molecule `CNCC(=O)NCCCC(c1ccc(F)cc1)c1ccc(F)cc1` [Example 74, N-[4,4-Bis-(4-fluoro-phenyl)-butyl]-2-methylamino-acetamide], in experiment [2], the concentration for half-maximal inhibition (IC50) was determined as 2.9 µM.

For the molecule `CN[C@@H](CNCCCC(c1ccc(F)cc1)c1ccc(F)cc1)CC(C)C` [Example 77, (R)-N^1-[4,4-Bis-(4-fluoro-phenyl)-butyl]-4-N^2-dimethyl-pentane-1,2-diamine], the “Anti-Writhing % Protection (dose)” value in experiment [1] stood at 43.4% @ 10 mg/kg. In experiment [2], the 50% inhibitory concentration (IC50) is 2.2 µM. Turning to `CC(C)CN(C)CC(=O)NCCCC(c1ccc(F)cc1)c1ccc(F)cc1` [Example 78, N-[4,4-Bis-(4-fluoro-phenyl)-butyl]-2-(isobutyl-methyl-amino)-acetamide], the “Anti-Writhing % Protection (dose)” value in experiment [1] is 0% @ 10 mg/kg. In addition, in experiment [2], the half-maximal inhibitory concentration (IC50) was 1.6 µM. “(S)-N^1-[4,4-Bis-(4-fluoro-phenyl)-butyl]-4-N^2-dimethyl-pentane-1,2-diamine [Example 76]”: the “Anti-Writhing % Protection (dose)” value in experiment [1] is reported as 20.9% @ 10 mg/kg. Further, the half-maximal inhibitory concentration (IC50) in experiment [2] is 2.2 µM.

Values taken from patent publication US6458781B1, “Substituted diarylalkyl amides as calcium channel antagonists” (priority 1998, dated 2002).
